Laboratory results as given in patent US20040209914A1, “Aromatic sulfone hydroxamic acids and their use as protease inhibitors” (priority 2000, published 2004).

Columns and labels:
[1] = tested on: solid tumor cancers (colorectal, pancreatic, ovarian, and prostate); conditions: patients with advanced, rapidly progressive, treatment-refractory solid tumor cancers; cited from earlier work
Recombinant human MMP-1 = molecular target: T1, Recombinant human MMP-1 (Homo sapiens, UniProt P03956); assay: biochemical; conditions: fluorogenic MCA-peptide substrate, pH 7.5, room temperature
T1 construct: made in house; host or cells: transfected HT-1080 cells
T1 sequence (P03956 100-469): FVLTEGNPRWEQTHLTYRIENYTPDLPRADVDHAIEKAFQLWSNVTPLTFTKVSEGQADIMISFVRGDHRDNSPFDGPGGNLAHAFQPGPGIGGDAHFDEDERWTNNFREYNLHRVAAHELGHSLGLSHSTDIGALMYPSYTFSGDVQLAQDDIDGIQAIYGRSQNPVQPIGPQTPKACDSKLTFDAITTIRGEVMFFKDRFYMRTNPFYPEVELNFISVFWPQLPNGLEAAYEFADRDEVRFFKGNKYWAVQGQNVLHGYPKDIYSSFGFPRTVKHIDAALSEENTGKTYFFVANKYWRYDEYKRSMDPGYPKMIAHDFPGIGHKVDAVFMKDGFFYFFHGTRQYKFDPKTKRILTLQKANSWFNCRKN
Outline: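 Recombinant human MMP-1 from transfected HT-1080 cells, APMA-activated and hydroxamate-column purified, was incubated at room temperature with 4 uM MCA-ProLeuGlyLeuDpaAlaArgNH2 fluorogenic substrate. Inhibition taken as fall in fluorescence versus inhibitor concentration, giving IC50.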

Recombinant human MMP-2 = molecular target: T2, Recombinant human MMP-2 (Homo sapiens, UniProt P08253); assay: biochemical; conditions: fluorogenic MCA-peptide substrate, pH 7.5, room temperature; read-out: MMP-2 IC50
T2 construct: made in house
T2 sequence (P08253 110-660): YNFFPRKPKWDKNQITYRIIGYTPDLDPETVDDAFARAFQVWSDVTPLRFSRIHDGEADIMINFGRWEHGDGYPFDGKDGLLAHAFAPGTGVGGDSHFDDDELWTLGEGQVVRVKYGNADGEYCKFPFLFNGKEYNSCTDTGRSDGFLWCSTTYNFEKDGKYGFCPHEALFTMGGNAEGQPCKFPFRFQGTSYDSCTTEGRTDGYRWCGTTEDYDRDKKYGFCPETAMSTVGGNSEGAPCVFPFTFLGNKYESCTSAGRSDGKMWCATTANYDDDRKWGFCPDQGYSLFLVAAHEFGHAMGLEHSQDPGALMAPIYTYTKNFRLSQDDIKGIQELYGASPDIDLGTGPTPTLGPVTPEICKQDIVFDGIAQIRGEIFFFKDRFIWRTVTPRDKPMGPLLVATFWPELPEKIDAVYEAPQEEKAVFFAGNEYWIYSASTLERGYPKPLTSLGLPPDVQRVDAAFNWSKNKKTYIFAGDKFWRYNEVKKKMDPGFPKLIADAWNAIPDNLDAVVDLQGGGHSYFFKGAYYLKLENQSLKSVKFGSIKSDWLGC
Outline: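 Activated (APMA or trypsin) recombinant human MMP-2, from transfected expressing cells, incubated at room temperature with 4 uM fluorogenic substrate MCA-Pro-Leu-Gly-Leu-Dpa-Ala-Arg-NH2 and hydroxamate inhibitor.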

Recombinant human MMP-13 = molecular target: T3, Recombinant human MMP-13 (Homo sapiens, UniProt P45452); assay: biochemical; conditions: fluorogenic MCA-peptide substrate, pH 7.5, room temperature; read-out: MMP-13 IC50
T3 construct: made in house; host or cells: baculovirus / insect cells
Outline: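 APMA-activated MMP (proenzyme purified on heparin agarose and chelating zinc columns) incubated at room temperature with 4 uM fluorogenic MCA-ProLeuGlyLeuDpaAlaArgNH2 substrate. Inhibition read as reduced fluorescence versus inhibitor concentration relative to a DMSO control, giving IC50.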

| Compound | effect on cancer-specific antigens used as surrogate markers for biological activity [1] | IC50 (Recombinant human MMP-1) [nM] | IC50 (Recombinant human MMP-2) [nM] | IC50 (Recombinant human MMP-13) [nM] |
| --- | --- | --- | --- | --- |
| CNC(=O)[C@@H](NC(=O)[C@H](CC(C)C)[C@H](O)C(=O)NO)C(C)(C)C [Marimastat] | dose-related reduction in the rise of cancer-specific antigens |  |  |  |
| COc1ccc(C(=O)C2CCN(c3ccc(S(=O)(=O)C4(C(=O)NO)CCOCC4)cc3)CC2)cc1C [Example 305] |  | > 10000 | 3300 | 6 |
| CCN1CCC(C(=O)NO)(S(=O)(=O)c2ccc(N3CCC(C(=O)c4ccc(CC5CCC5)cc4)CC3)cc2)CC1 [Example 195] |  | > 10000 | 463 | 0.3 |
| O=C(NO)C1(S(=O)(=O)c2ccc(N3CCC(Sc4nc5ccccc5s4)CC3)cc2)CCN(C2CC2)CC1 [Example 185] |  | > 10000 | 87.4 | 5.1 |
| CCN1CCC(C(=O)NO)(S(=O)(=O)c2ccc(N3CCC(C(=O)c4ccc(CCCC(C)C)cc4)CC3)cc2)CC1 [Example 236] |  | > 10000 | 1850 | 1.5 |
| Cc1ccc(C(=O)C2CCN(c3ccc(S(=O)(=O)C4(C(=O)NO)CCN(S(C)(=O)=O)CC4)cc3)CC2)cc1C [Example 164] |  | > 10000 | 942 | 5.4 |
| COCCN1CCC(C(=O)NO)(S(=O)(=O)c2ccc(N3CCC(C(=O)c4ccc(Cl)c(C)c4)CC3)cc2)CC1 [Example 211] |  | > 10000 | 122 | 1.2 |
| C#CCN1CCC(C(=O)NO)(S(=O)(=O)c2ccc(N3CCC(C(=O)c4ccc(OC(C)C)c(C)c4)CC3)cc2)CC1 [Example 162] |  | > 10000 | 495 | 2.7 |
| COc1ccccc1N1CCN(C(=O)C2CCN(c3ccc(S(=O)(=O)C4(C(=O)NO)CCOCC4)cc3)CC2)CC1 [Example 7] |  | > 10000 | 4500 | 18 |
| COCCN1CCC(C(=O)NO)(S(=O)(=O)c2ccc(N3CCC(c4ccc(Cl)cc4)CC3)cc2)CC1 [Example 271] |  | > 10000 | 1.7 | 0.8 |
| O=C(C1CCN(c2ccc(S(=O)(=O)C3(C(=O)NO)CCOCC3)cc2)CC1)N1CCN(c2ccccc2Cl)CC1 [Example 4] |  | > 10000 | 2900 | 15.6 |
| CCC(CC)Cc1ccc(C(=O)C2CCN(c3ccc(S(=O)(=O)C4(C(=O)NO)CCN(CCOC)CC4)cc3)CC2)cc1 [Example 230] |  | > 10000 | 745 | 0.1 |
| CCN1CCC(C(=O)NO)(S(=O)(=O)c2ccc(N3CCC(C(=O)c4ccc(CCCC(C)O)cc4)CC3)cc2)CC1 (stereo not shown) [Example 247] |  | > 10000 | 111 | 0.3 |
| COCCN1CCC(C(=O)NO)(S(=O)(=O)c2ccc(N3CCC(C(=O)c4ccc(CC5CCC5)cc4)CC3)cc2)CC1 [Example 201] |  | > 10000 | 6320 | 0.2 |
| O=C(c1ccco1)N1CCN(C(=O)C2CCN(c3ccc(S(=O)(=O)C4(C(=O)NO)CCOCC4)cc3)CC2)CC1 [Example 13] |  | > 10000 | 3500 | 31.6 |
| C#CCN1CCC(C(=O)NO)(S(=O)(=O)c2ccc(N3CCC(C(=O)c4ccc(OC)cc4)CC3)cc2)CC1 [Example 151] |  | > 10000 | 128 | 1.3 |
| O=C(c1ccc(Br)cc1)C1CCN(c2ccc(S(=O)(=O)C3(C(=O)NO)CCOCC3)cc2)CC1 [Example 378] |  | > 10000 | 28.4 | 0.3 |
| COCCN1CCC(C(=O)NO)(S(=O)(=O)c2ccc(N3CCC(C(=O)c4ccc(CC(C)CO)cc4)CC3)cc2)CC1 (stereo not shown) [Example 231] |  | > 10000 | 39.4 | 0.5 |
| CCN1CCC(C(=O)NO)(S(=O)(=O)c2ccc(N3CCC(C(=O)c4ccc(CC5CC5)cc4)CC3)cc2)CC1 [Example 254] |  | > 10000 | 132 | 1.3 |
| Cc1cc(C(=O)C2CCN(c3ccc(S(=O)(=O)C4(C(=O)NO)CCOCC4)cc3)CC2)ccc1OC(C)C [Example 376] |  | > 10000 | 2190 | 6.4 |
| CCCc1ccc(C(=O)C2CCN(c3ccc(S(=O)(=O)C4(C(=O)NO)CCN(CC)CC4)cc3)CC2)cc1 [Example 170] |  | > 10000 | 134 | 1.3 |
| O=C(c1ccc(CC2CCC2)cc1)C1CCN(c2ccc(S(=O)(=O)C3(C(=O)NO)CCN(C4CC4)CC3)cc2)CC1 [Example 196] |  | > 10000 | 750 | 1 |
